Activity calls are given as the source filed them. The rule behind the calls is not given here. A value given as a limit tells only on which side of the number the result lay.

Assay [1] can be described thus: Mycobacterium tuberculosis growth inhibition, OD600, confirmatory dose response, dry powder (AID 743186). As to conditions: Mycobacterium tuberculosis growth, OD600; at 6 µM (top of the series).
Assay [2] concerns Mycobacterium tuberculosis growth, OD600. The assay is described as above.

Regarding `O=C(OCc1ccc(Cl)c(Cl)c1)c1ccccn1`, the growth change, negative = inhibition in assay [1] was -2.92% (inactive).
For the molecule `Clc1cccc(CNCCNCc2cccc(Cl)c2)c1`, the AC90 in assay [2] was > 6 µM (inactive).
On to `CCCC(C)C(=O)Nc1ccc(Cl)cn1` (stereo unspecified), for which, in assay [1], the growth change, negative = inhibition was -8.24% (inactive).
For the molecule `CCCOC(=O)c1ccc(NC(=O)c2ccc(Br)o2)cc1`, the growth change, negative = inhibition in assay [1] is 4.84% (inactive).
As to `Fc1ccc(-c2ccc(CNCc3ccccn3)o2)cc1Cl`, the growth change, negative = inhibition in assay [1] was -11.2% (inactive).
Still for that read-out and setting: then `NC(=O)COc1ccc2cc(-c3ccc(F)cc3)c(=O)oc2c1`, with 0.842% (inactive); and `CCOC(=O)c1c(C)n(C)c2ccc(OC(C)C(=O)OC)cc12` (stereo unspecified), with -3.72% (inactive).
Regarding `Cc1nnc(NC(=O)c2ccc3ccccc3c2)o1`, the AC90 in assay [2] was 2.96 µM.
Take `Clc1cccc(-c2ccc(CNCc3ccccn3)o2)c1`: the growth change, negative = inhibition in assay [1] was -12.5% (inactive).
As for `O=C(NCc1cccs1)c1ccc(Br)o1`, the AC90 in assay [2] is > 6 µM (inactive).
Take `O=C(OCCCCN1C(=O)c2ccccc2C1=O)c1ccc(Br)o1`: in assay [1], the growth change, negative = inhibition was 1.08% (inactive).
On the same count and under the same terms, then `O=C(NC1CC2CCC1C2)C1COc2ccccc2O1` (stereo unspecified), with -8.57% (inactive).
For the molecule `C=CCn1c(NC(=O)c2ccccc2)nc2ccccc21`, the AC90 in assay [2] was > 6 µM (inactive).
With `O=C(Nc1nc2ccccc2[nH]1)c1cccc(Cl)c1`, the AC90 in assay [2] is > 6 µM (inactive).
On to `CCOC(=O)COc1ccc2c(=O)c(-c3ccccc3)coc2c1`, for which the growth change, negative = inhibition in assay [1] is -66.9% (inactive).
Consider `CCc1ccc(OCCCC(=O)NCc2ccco2)cc1`, for which the growth change, negative = inhibition in assay [1] was 2.01% (inactive).
For the molecule `Cc1cccc(C)c1N1C(=O)CC(N2CCSCC2)C1=O` (stereo unspecified), the AC90 in assay [2] is > 6 µM (inactive).
In the case of `CC(=O)c1ccc(NC(=O)c2cc(CC(C)C)on2)cc1`, the growth change, negative = inhibition in assay [1] is -8.04% (inactive).
On to `Cc1ccc(C)c(-c2csc(NC(=O)c3cnccn3)n2)c1`, for which, in assay [2], the AC90 was > 6 µM (inactive).
With `Brc1c(-c2ccc3c(c2)OCO3)nc2ncccn12`, the AC90 in assay [2] is 5.4 µM.
`CS(=O)(=O)Cc1nc2ccccc2oc1=O`: the AC90 in assay [2] is > 6 µM (inactive).
For the molecule `Cc1cc(C)n2nc(S(=O)(=O)Nc3c(Cl)cccc3Cl)nc2n1`, the AC90 in assay [2] is 3.89 µM.
For the molecule `O=C(COc1c(Br)cc(Br)c2cccnc12)N1CCCCC1`, the growth change, negative = inhibition in assay [1] was -5.71% (inactive).
For `Cc1cc(NC(=O)C2CCCCC2)n(-c2nc3ccccc3[nH]2)n1`, the AC90 in assay [2] was > 6 µM (inactive).
Regarding `CCCCN(C/C=C/c1ccccc1OC)Cc1ccccc1`, the AC90 in assay [2] was > 6 µM (inactive).
For `CCOC(=O)COc1ccc2c(=O)cc(-c3ccccc3)oc2c1`, the growth change, negative = inhibition in assay [1] was -72.2% (inactive).
Turning to `O=C(COc1cccc2ccccc12)Nc1nc2ccccc2[nH]1`, the growth change, negative = inhibition in assay [1] was 3.31% (inactive).
Same read-out and setting: then `CCOC(=O)c1sc(NC(=O)CCN2CCOCC2)c(C(=O)OCC)c1C`, with 2.46% (inactive).
As to `NC1CCN(c2c(F)cc3c(=O)c(C(=O)O)cn(C4CC4)c3c2Cl)C1` (stereo unspecified), the AC90 in assay [2] was 0.176 µM.
On to `COC(=O)COc1cccc(NC(=O)c2ccc(Cl)cc2)c1`, for which the AC90 in assay [2] was > 6 µM (inactive).
As for `Cc1cccc(Cn2ccc(NC(=O)c3ccc4c(c3)OCO4)n2)c1`, the AC90 in assay [2] is 1.67 µM.
On the same count and under the same terms, then `COC(=O)COc1ccc2c(=O)c(Oc3ccccc3)c(C)oc2c1`, with > 6 µM (inactive).
For `NC(=O)C1(N2CCCCC2)CCN(C2CC(=O)N(CCc3ccccc3)C2=O)CC1` (stereo unspecified), in assay [1], the growth change, negative = inhibition was 12.1% (inactive).
As for `O=C(CCN1CCC(c2cccs2)=N1)c1cccs1`, the growth change, negative = inhibition in assay [1] is -5.74% (inactive).
`c1ccc(Nc2nc(-c3ccccn3)cs2)cc1`: the AC90 in assay [2] was > 6 µM (inactive).
Turning to `CCOC(=O)COc1ccc2c(c1)C(=O)CC1(CCCCC1)O2`, in assay [1], the growth change, negative = inhibition was -49.6% (inactive).

These data come from PubChem BioAssay AID743186 (Broad Institute, 2013).
